For assay [1], the target named is 5-HT7AR (Homo sapiens, UniProt P34969). As to the kind of experiment: 5-HT7AR radioligand binding assay.
Assay [2] addresses D5R (Homo sapiens, UniProt P21918). As to the kind of experiment: D5R radioligand binding assay. As to conditions: triplicate; na = not active (<50% inhibition in a primary assay).
Assay [3] addresses 5-HT2AR (Homo sapiens, UniProt P28223). The experiment in a line: 5-HT2AR radioligand binding assay.
In assay [4] the target is 5-HT6R (Homo sapiens, UniProt P50406). As to the kind of experiment: 5-HT6R radioligand binding assay. As to conditions: [3H]LSD radioligand; triplicate; na = not active (<50% inhibition in a primary assay).
5-HT6R, sequence (P50406 whole entry): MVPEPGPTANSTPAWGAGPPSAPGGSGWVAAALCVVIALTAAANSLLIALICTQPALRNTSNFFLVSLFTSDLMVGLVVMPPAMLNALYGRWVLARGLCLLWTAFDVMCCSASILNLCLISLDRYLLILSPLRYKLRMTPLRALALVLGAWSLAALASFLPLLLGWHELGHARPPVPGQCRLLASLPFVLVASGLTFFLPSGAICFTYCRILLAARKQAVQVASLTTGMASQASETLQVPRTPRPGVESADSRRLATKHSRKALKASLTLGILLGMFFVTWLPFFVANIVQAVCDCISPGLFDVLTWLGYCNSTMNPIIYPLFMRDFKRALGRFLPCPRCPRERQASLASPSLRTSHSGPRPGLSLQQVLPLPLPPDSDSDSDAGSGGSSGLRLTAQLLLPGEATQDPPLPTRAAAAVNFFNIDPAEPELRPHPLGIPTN
The mark [5] stands for this setting: [3H]Ketanserin radioligand, triplicate, na = not active (<50% inhibition in a primary assay).

Read-outs that look alike come from different tables or passages of the source.

D5R, sequence (P21918 whole entry): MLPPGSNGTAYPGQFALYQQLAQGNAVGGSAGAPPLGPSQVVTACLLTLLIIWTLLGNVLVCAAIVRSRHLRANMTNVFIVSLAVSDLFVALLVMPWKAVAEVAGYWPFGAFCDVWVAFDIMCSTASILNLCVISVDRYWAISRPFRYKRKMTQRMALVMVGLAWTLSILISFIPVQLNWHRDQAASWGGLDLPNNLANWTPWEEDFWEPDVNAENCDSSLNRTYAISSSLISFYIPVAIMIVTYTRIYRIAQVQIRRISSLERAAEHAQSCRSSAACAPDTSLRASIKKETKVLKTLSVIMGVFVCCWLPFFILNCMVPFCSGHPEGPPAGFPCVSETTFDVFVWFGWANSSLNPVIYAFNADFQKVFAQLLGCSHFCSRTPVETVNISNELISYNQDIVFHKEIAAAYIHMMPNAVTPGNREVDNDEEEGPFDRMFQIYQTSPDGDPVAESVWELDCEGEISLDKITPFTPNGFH
5-HT2AR, sequence (P28223 whole entry): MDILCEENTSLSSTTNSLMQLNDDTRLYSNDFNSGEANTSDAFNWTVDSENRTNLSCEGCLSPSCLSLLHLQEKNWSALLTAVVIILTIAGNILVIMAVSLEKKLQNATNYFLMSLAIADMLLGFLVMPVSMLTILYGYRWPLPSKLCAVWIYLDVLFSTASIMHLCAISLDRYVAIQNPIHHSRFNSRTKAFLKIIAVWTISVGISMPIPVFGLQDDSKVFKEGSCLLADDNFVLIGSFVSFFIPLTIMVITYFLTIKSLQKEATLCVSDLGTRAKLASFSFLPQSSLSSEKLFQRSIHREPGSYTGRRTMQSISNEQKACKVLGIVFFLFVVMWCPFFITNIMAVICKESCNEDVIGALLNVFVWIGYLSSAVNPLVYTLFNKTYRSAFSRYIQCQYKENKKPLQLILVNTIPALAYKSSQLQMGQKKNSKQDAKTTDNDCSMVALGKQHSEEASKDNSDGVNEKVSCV
5-HT7AR, sequence (P34969 1-445 isoform P34969-2): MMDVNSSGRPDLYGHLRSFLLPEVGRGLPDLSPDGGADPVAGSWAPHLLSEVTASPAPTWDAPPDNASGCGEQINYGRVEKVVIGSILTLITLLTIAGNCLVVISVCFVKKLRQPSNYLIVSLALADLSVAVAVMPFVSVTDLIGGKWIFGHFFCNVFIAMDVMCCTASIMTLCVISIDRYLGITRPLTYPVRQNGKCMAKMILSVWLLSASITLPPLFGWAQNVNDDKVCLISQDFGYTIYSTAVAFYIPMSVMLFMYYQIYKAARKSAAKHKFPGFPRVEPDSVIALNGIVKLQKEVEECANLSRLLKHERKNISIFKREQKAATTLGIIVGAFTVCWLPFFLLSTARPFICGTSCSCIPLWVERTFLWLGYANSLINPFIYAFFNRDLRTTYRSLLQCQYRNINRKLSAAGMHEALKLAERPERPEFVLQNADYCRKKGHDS

In the case of `CN1CCc2cccc3c2C1Cc1ccc2nc(N)sc2c1-3` (centres unmarked) [Compound 33a, 7-methyl-6a,7,8,9-tetrahydro-6H-benzo[de]thiazolo[4’,5’:5,6]benzo[1,2-g]quinolin-2-amine], the “selectivity for 5-HT7AR versus 5-HT1AR” value in assay [1] (ratio of binding affinities) was “approximately 19 fold”. For the same compound, in assay [2], the “Ki D5R” value is “no affinity”. For `COc1cc2c3c(c1OC)-c1cc(NC(N)=O)ccc1CC3N(C)CC2` (centres unmarked) [Compound 19, 1-(1,2-dimethoxy-6-methyl-5,6,6a,7-tetrahydro-4H-dibenzo[de,g]quinolin-10-yl)urea], the “Ki 5-HT2AR” value in assay [3] (setting [5]) is listed as “lack of affinity”. In the case of `CCCN1CCc2cccc3c2C1Cc1ccc(NC(C)=O)cc1-3` (centres unmarked) [Compound 25, N-(6-propyl-5,6,6a,7-tetrahydro-4H-dibenzo[de,g]quinolin-10-yl)acetamide], in assay [1] ([3H]LSD radioligand, triplicate, na = not active (<50% inhibition in a primary assay)), the “Ki 5-HT7AR” value is reported as “no affinity”. The “Ki 5-HT2AR” value in assay [3] (setting [5]) is “no affinity”. Also, in assay [4], the “Ki 5-HT6R” value is reported as “no affinity”. In the case of `COc1cc2c3c(c1OC)-c1cc(NS(C)(=O)=O)ccc1CC3N(C)CC2` (centres unmarked) [Compound 15, N-(1,2-dimethoxy-6-methyl-5,6,6a,7-tetrahydro-4H-dibenzo[de,g]quinolin-10-yl)methanesulfonamide], the “Ki 5-HT2AR” value in assay [3] (setting [5]) was “lack of affinity”.

For `CN(C)c1ccc2c(c1)-c1cccc3c1C(C2)N(C)CC3` (centres unmarked) [Compound 31, N,N,6-trimethyl-5,6,6a,7-tetrahydro-4H-dibenzo[de,g]quinolin-10-amine], in assay [3], the “Ki 5-HT2AR” value is on record as “fairly weak affinity”. The “Ki 5-HT6R” value in assay [4] was “fairly weak affinity”. `CN1CCc2cccc3c2C1Cc1ccc(NC(N)=O)cc1-3` (centres unmarked) [Compound 29, 1-(6-methyl-5,6,6a,7-tetrahydro-4H-dibenzo[de,g]quinolin-10-yl)urea]: the “Ki D5R” value in assay [2] is “lacked affinity”. Take `CCCN1CCc2cccc3c2C1Cc1cc2sc(N)nc2cc1-3` (centres unmarked) [Compound 34b, 6-propyl-5,6,6a,7-tetrahydro-4H-benzo[de]thiazolo[5’,4’:4,5]benzo[1,2-g]quinolin-10-amine]: the “Ki D5R” value in assay [2] is recorded as “lack of affinity”.

The values are drawn from PMC7340851 (Bioorganic & medicinal chemistry, 2020).
